# Assay results taken from patent US9862708B2, “Pyrazolone compounds and uses thereof” (Tempest Therapeutics, Inc., priority 2014, dated 2018).
# Biological target: T1, human PPARα (Homo sapiens, UniProt Q07869)
# T1 construct: host or cells: proprietary non-human mammalian cells
# T1 sequence (Q07869 1-468): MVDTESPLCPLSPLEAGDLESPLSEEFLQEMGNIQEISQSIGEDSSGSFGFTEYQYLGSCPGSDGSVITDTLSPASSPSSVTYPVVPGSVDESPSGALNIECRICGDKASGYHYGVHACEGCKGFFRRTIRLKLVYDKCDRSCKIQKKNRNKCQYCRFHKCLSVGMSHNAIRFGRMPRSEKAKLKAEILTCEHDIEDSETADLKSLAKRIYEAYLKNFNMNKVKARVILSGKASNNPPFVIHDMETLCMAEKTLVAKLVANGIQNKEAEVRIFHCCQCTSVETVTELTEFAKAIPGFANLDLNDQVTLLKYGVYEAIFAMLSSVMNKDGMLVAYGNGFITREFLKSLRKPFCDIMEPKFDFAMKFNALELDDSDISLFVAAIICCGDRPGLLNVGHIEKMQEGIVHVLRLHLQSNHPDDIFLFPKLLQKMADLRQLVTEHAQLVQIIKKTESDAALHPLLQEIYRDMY
# Assay: Human PPARα Reporter Assay (luciferase, Indigo Biosciences)
# Type: cell-based
# Settings: antagonism; luciferase reporter cells, overnight incubation; read-out: PPARα IC50
# Method: Human PPARα Reporter Assay
# The screening of test compounds for agonist or antagonist activities against human PPARα receptors was performed using a commercial kit, Human PPARα Reporter Assay System (Indigo Biosciences, Cat. #IB00111).
# This nuclear receptor assay system utilizes proprietary non-human mammalian cells engineered to provide constitutive, high-level expression of Human PPARα. Because these cells incorporate a PPARα-responsive luciferase reporter gene, quantifying expressed luciferase activity provides a sensitive surrogate measure of PPARα activity in the treated cells. The primary application of this reporter assay system is in the screening of test samples to quantify any functional activity, either agonist or antagonist, that they may exert against human PPARα.
# Briefly, reporter cells are dispensed into wells of the assay plate and then immediately dosed with test compounds. Following an overnight incubation, the treatment media is discarded and Luciferase Detection Reagent (LDR) is added. The intensity of light emission from the ensuing luciferase reaction provides a sensitive measure that is directly proportional to the relative level of PPARα activation in the reporter cells.
row,Compound,IC50
1,"CC(C)(Oc1ccc(CCCC2=NN(c3ccccc3)C(=O)C2(C)C)cc1)C(=O)O [Example 10, 2-(4-(3-(4,4-dimethyl-5-oxo-1-phenyl-4,5-dihydro-1H-pyrazol-3-yl)propyl)phenoxy)-2-methylpropanoic acid]",410 nM
2,"CC(C)(Oc1ccc(CCCC2=NN(c3ccc(C(F)(F)F)cc3)C(=O)C2(C)C)cc1)C(=O)NS(=O)(=O)c1ccccc1 [Example 22, 2-(4-(3-(4,4-dimethyl-5-oxo-1-(4-(trifluoromethyl)phenyl)-4,5-dihydro-1H-pyrazol-3-yl)propyl)phenoxy)-2-methyl-N-(phenylsulfonyl)propanamide]",0.9 nM
3,"CC(C)(Oc1ccc(CCCC2=NN(Cc3ccc(-c4ccccc4)cc3)C(=O)C2(C)C)cc1)C(=O)O [Example 14, 2-(4-(3-(1-([1,1′-biphenyl]-4-ylmethyl)-4,4-dimethyl-5-oxo-4,5-dihydro-1H-pyrazol-3-yl)propyl)phenoxy)-2-methylpropanoic acid]",260 nM
4,"CC(C)(Oc1ccc(CCCC2=NN(c3ccc(C(F)(F)F)cc3)C(=O)C2(C)C)cc1)C(=O)O [Example 19, 2-(4-(3-(4,4-dimethyl-5-oxo-1-(4-(trifluoromethyl)phenyl)-4,5-dihydro-1H-pyrazol-3-yl)propyl)phenoxy)-2-methylpropanoic acid]",3.8 nM
5,"COc1ccc(-c2ccc(CCCC3=NN(Cc4ccc(C(C)(C)C)cc4)C(=O)C3(C)C)cc2)nc1NS(=O)(=O)c1ccccc1 [Example 59, N-(6-(4-(3-(1-(4-(tert-butyl)benzyl)-4,4-dimethyl-5-oxo-4,5-dihydro-1H-pyrazol-3-yl)propyl)phenyl)-3-methoxypyridin-2-yl)benzenesulfonamide]",10 nM
6,"CC1(C)C(=O)N(c2ccc(C(F)(F)F)cc2)N=C1CCCc1ccc(OC(C)(C)C(O)C(F)(F)F)cc1 (stereo not drawn) [Example 43, 4,4-dimethyl-3-(3-(4-((4,4,4-trifluoro-3-hydroxy-2-methylbutan-2-yl)oxy)phenyl)propyl)-1-(4-(trifluoromethyl)phenyl)-1H-pyrazol-5(4H)-one]",1200 nM
7,"CC(C)(Oc1ccc(CCCC2=NN(Cc3ccc(C(F)(F)F)cc3)C(=O)C2(C)C)cc1)C(=O)O [Example 8, 2-(4-(3-(4,4-dimethyl-5-oxo-1-(4-(trifluoromethyl)benzyl)-4,5-dihydro-1H-pyrazol-3-yl)propyl)phenoxy)-2-methylpropanoic acid]",62 nM
8,"CC1(C)C(=O)N(c2ccc(C(F)(F)F)cc2)N=C1CCCc1ccc(OC(C)(C(=O)O)c2ccccc2)cc1 (single isomer, unassigned) [53-enantiomer#1, 2-(4-(3-(4,4-dimethyl-5-oxo-1-(4-(trifluoromethyl)phenyl)-4,5-dihydro-1H-pyrazol-3-yl)propyl)phenoxy)-2-phenylpropanoic acid]",820 nM
9,"CC(C)(Oc1ccc(CCCC2=NN(Cc3ccc(C4CC4)cc3)C(=O)C2(C)C)cc1)C(=O)O [Example 16, 2-(4-(3-(1-(4-cyclopropylbenzyl)-4,4-dimethyl-5-oxo-4,5-dihydro-1H-pyrazol-3-yl)propyl)phenoxy)-2-methylpropanoic acid]",140 nM
10,"CC1(C)C(=O)N(c2cccc(C(F)(F)F)c2)N=C1CCCc1ccc(OC2(C(=O)O)CCC2)cc1 [Example 51, 1-(4-(3-(4,4-dimethyl-5-oxo-1-(3-(trifluoromethyl)phenyl)-4,5-dihydro-1H-pyrazol-3-yl)propyl)phenoxy)cyclobutanecarboxylic acid]",58 nM
11,"CCOc1ccc(-c2ccc(CCCC3=NN(Cc4ccc(C(C)(C)C)cc4)C(=O)C3(C)C)cc2)cc1CC(=O)O [Example 55, 2-(4′-(3-(1-(4-(tert-butyl)benzyl)-4,4-dimethyl-5-oxo-4,5-dihydro-1H-pyrazol-3-yl)propyl)-4-ethoxy-[1,1′-biphenyl]-3-yl)acetic acid]",110 nM
12,"CC(C)(Oc1ccc(CCCC2=NN(c3ccc4ccccc4c3)C(=O)C23CCCC3)cc1)C(=O)O [Example 37, 2-methyl-2-(4-(3-(3-(naphthalen-2-yl)-4-oxo-2,3-diazaspiro[4,4]non-1-en-1-yl)propyl)phenoxy)propanoic acid]",2.8 nM
